# Measured values published in article PMC9002018, “The Antimicrobial Peptide MPX Can Kill Staphylococcus aureus, Reduce Biofilm Formation, and Effectively Treat Bacterial Skin Infections in Mice” (Frontiers in Veterinary Science, 2022).
# Where no end group is shown, it is not given here.
# Key:
# S. aureus ATCC 25923 [1] = assay: Electron microscopy (SEM, TEM) of bacterial morphology; format: cell-based, Staphylococcus aureus
# Description: (§1) A sterile slides were placed in 6-well cell culture plates and bacteria were allowed to grow naturally on the slides to form a biofilm. Overnight culture broth and fresh broth were added at a volume ratio of 1:100, and incubated at 37°C for 24 h. Different final concentrations of MPX (1×MIC, 4×MIC) were added, incubation was continued. Then, a 2.5% glutaraldehyde solution was added to each well, and the cells were fixed at room temperature for 30 min. The plate was rinsed 3 times with PBS for 10 min each time. Gradient dehydration was performed with increasing concentrations of an ethanol solution (30, 50, 70, 80, 90, 95, and 100%). After ion spray gold coating, biofilm formation was observed by scanning electron microscopy (SEM) ([17]).
# Transmission electron microscopy (TEM) was used to detect the bacterial structure changes after MPX acted on S. aureus ATCC 25923. S. aureus was cultured overnight. MPX was added to different final concentrations. The cells were incubated with shaking at 37°C for 2 h, and then sodium phosphotungstate was used for negative staining. The effect of AMPs on S. aureus was observed. Centrifugation, fixation, dehydration, soaking, embedding and polymerization, sectioning and staining of the culture were performed. Finally, a transmission electron microscope was used to observe the results.
# A. pleuropneumoniae = settings: previous experiment of the same laboratory; cited from earlier work
# Description: S. aureus can cause a wide range of infections, which can lead to organ failure and death in severe cases. It is one of the most common pathogens in communities and hospitals worldwide. The emergence and rapid spread of methicillin-resistant S. aureus strains have produced great challenges for clinical treatment. According to reports, patients with methicillin-resistant S. aureus infection have an increased clinical risk, especially an increased risk of mortality ([18]). Therefore, we must strengthen the prevention of MDR S. aureus infection, find effective alternatives to antibiotics, and ide ...
# trypsin = assay: Protease stability assay with trypsin, read by agar diffusion; format: in vitro ADME; settings: MPX 1.3 μM, 37°C, 30 min
# Description: (§2) An MPX protease stability assay was performed in the following manner. MPX (1.3 μM) was mixed with equal volumes of proteinase K and trypsin at different concentrations. After incubating at 37°C for 30 min, the samples were incubated in a boiling water bath for 5 min to stop the protease reaction. The protease stability of MPX was detected by the agar diffusion assay.
# [2] = tested on: S. aureus ATCC 25923 biofilm; assay: Biofilm observation by SEM and confocal laser microscopy (SYTO 9/PI); format: cell-based, Staphylococcus aureus; settings: MPX 4×MIC added to 24 h biofilm
# Description: S. aureus ATCC 25923 was cultivated as described above. After culturing in a 37°C incubator for 24 h, MPX (final concentration: 4×MIC) was added to the sample. […] S. aureus was washed 3 times with 0.85% NaCl to remove nucleic acids and other medium components. A LIVE/DEAD BacLight Bacterial Viability L-7012 Kit (Molecular Probes, Eugene, OR, USA), containing two component dyes (SYTO 9 and PI in a 1:1 mixture) in solution, was used prior to microscopy and quantitative assays according to the test instructions. A total of 3 μL of the dye mixture was added to each well, the wells were incubated at room temperature in the dark for 15 min, and the bacterial survival in the biofilm was observed by confocal laser microscopy.
# as §1, with “After ion spray gold coating, biofilm formation was observed by scanning electron microscopy (SEM) ([17]).” left out
# S. aureus ATCC 25923 [3] = assay: Agar diffusion test of antibacterial activity; format: cell-based, Staphylococcus aureus; settings: 1 mg/mL MPX, 20 μL per well, overnight at 37°C; sterile water control had no zone
# Description: The agar diffusion test was used to detect the antibacterial effect of MPX on S. aureus ATCC 25923. S. aureus ATCC 25923 was cultured overnight, and the supernatant was discarded by centrifugation. The bacteria were washed with sterile PBS, and resuspended in a smaller volume to concentrate the cells. Next, 50 μL of the bacterial solution was pipetted into 15 mL of agar and shaken gently to mix. The plate was poured, a puncher was used to make holes after the agar medium had solidified and 20 μL of 1 mg/mL MPX was added to the wells. Sterile water was used as a control. The plates were incubated overnight at 37°C and the results were observed.
# S. aureus ATCC 25923 [4] = assay: DiSC3-5 assay for membrane potential; format: cell-based, Staphylococcus aureus; settings: MPX 1×MIC
# Description: Overnight-cultured S. aureus ATCC 25923 was centrifuged and resuspended in sterile PBS. A DiSC3-5 solution was added to a final concentration of 1 μM. The cells were incubated in the dark for 20 min. MPX (1×MIC, 2×MIC and 4×MIC) was added. Sterile water was used as the control, and AMP ([…]/50 μg/mL) was used as the positive control. The excitation wavelength was 622 nm, the emission wavelength was 670 nm, and the fluorescence intensity was detected by a microplate reader.
# proteinase K = proteinase K (Parengyodontium album, UniProt P06873); assay: Protease stability assay with proteinase K, read by agar diffusion; format: in vitro ADME; settings: MPX 1.3 μM, 37°C, 30 min
# Description: as §2
# S. aureus [5] = assay: Stability to salt ions, pH, temperature and repeated freezing and thawing, read by agar diffusion; format: physicochemical, Staphylococcus aureus; settings: n = 3
# Description: […] Solutions with different pH values were prepared with HCl and NaOH, producing pH values of 4, 5, 6, 7, 8, 9, 10, and MPX was incubated in these solutions for 30 min. MPX solutions were also incubated at different temperatures for 30 min (0, 25, 50, 75, and 100°C). A 1 mg/mL MPX solution was repeatedly frozen and thawed 0, 2, 4, 6, 8, 10, and 12 times. Ten microlitres of each of the peptide solutions treated as described above was collected, and the changes in the antimicrobial activity of the AMPs were detected by the agar diffusion assay.
# [6] = tested on: S. aureus ATCC 25923 biofilm; assay: Crystal violet assay of biofilm formation; format: cell-based, Staphylococcus aureus; settings: MPX 0.5×MIC, 24 h at 37°C, p < 0.01, n = 3
# Description: An overnight culture of S. aureus was inoculated into a 96-well polystyrene microtiter plate at a ratio of 1%. MPX (0.25×MIC, 0.5×MIC and 1×MIC) was added to the wells. Sterile water was used as a control. The plates were incubated at 37°C for 24 h. The microplates were then washed 3 times with sterile PBS, and the cells were fixed with 70% methanol for 30 min. Then, the cells were stained with 1% Hucker crystal violet staining solution at room temperature for 5 min. The dyeing solution was aspirated, and the cells were rinsed with water until no color remained. Images were acquired after drying. Then, 100 μL of a 70% ethanol solution was added to each well to dissolve the residual dye, and a microplate reader was used to measure the absorbance at OD570 nm ([16]).
# S. aureus ATCC 25923 [7] = assay: Time-killing curve (OD600 and plate counting); format: cell-based, Staphylococcus aureus; settings: 37°C
# Description: S. aureus was cultivated, the OD600 of the bacterial solution was adjusted to approximately 1.0, and MPX (1×MIC, 4×MIC) was added. In addition, sterile water was used as a control. The samples were incubated with shaking at 37°C. The OD600 value of the bacterial solution was measured every 1 h, and plate counting was performed at the same time to obtain the antibacterial time-killing curve of MPX against S. aureus ATCC 25923 ([15]).
# S. aureus [8] = assay: Propidium iodide uptake (fluorescence microscopy); format: cell-based, Staphylococcus aureus; settings: MPX 4×MIC for 0.5 h, compared with group without peptide
# Description: S. aureus was centrifuged, washed, and resuspended in sterile PBS. MPX (4×MIC) was added to the bacterial solution. The bacteria were cultured with shaking at 37°C and then centrifuged and resuspended in PBS solution. The cells were incubated with propidium iodide (PI) stain for 10 min in the dark. The suspension was fixed on a clean glass slide and observed with a fluorescence microscope.
# S. aureus ATCC 25923 [9] = assay: BCA protein assay of bacterial supernatant (protein leakage); format: cell-based, Staphylococcus aureus; settings: MPX (1×MIC, 4×MIC) for 5 min, BCA kit, P < 0.01, n = 3
# Description: S. aureus was cultured overnight, washed and resuspended in sterile PBS. MPX (1×MIC, 4×MIC) was added to the bacterial solution. Sterile water was added as a control. A peptide-only group was a negative control. The mixture was allowed to stand for 5 min, and the supernatant was collected after centrifugation. The effect of MPX on the permeability of S. aureus ATCC 25923 for protein was analyzed according to the instructions of the BCA kit.
# S. aureus ATCC 25923 [10] = assay: NPN uptake (membrane integrity); format: cell-based, Staphylococcus aureus; settings: MPX 0.02 μM (1×MIC), NPN 10 μM, ex 350 nm / em 420 nm, 0–10 min; comparator ampicillin 50 μg/mL
# Description: S. aureus ATCC 25923 was cultured overnight in a 96-well plate. An NPN solution was added to a final concentration of 10 μM. The solutions were mixed well and incubated for 20 min. MPX (1×MIC, 4×MIC) was added to the wells. Sterile water was used as the control, and ampicillin (Amp) ([…]/50 μg/mL) was used as the positive control. The excitation wavelength was 350 nm, the emission wavelength was 420 nm, and the fluorescence intensity was detected by a microplate reader ([13]).
# Sequence of proteinase K (P06873 106-384, species assumed): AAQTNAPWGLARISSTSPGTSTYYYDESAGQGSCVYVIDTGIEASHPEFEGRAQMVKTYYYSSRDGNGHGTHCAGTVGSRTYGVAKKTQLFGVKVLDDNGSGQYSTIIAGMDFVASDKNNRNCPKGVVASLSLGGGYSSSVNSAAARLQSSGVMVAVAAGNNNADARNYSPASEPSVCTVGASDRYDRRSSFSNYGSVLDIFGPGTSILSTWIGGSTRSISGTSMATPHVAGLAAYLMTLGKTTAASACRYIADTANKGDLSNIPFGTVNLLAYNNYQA
substance,measurement,setting,value
INWKGIAAMAKKLL-NH2 [MPX],bacterial morphology (SEM/TEM),S. aureus ATCC 25923 [1]; MPX 1×MIC,shrink and leak cell contents
same,cell membrane of S. aureus (TEM),"S. aureus ATCC 25923 [1]; MPX 4×MIC, 2 h at 37°C",severely damaged
same,effect of Ca2+ and Mg2+ on killing effect of MPX on A. pleuropneumoniae,A. pleuropneumoniae,significantly inhibit
same,effect of trypsin on antibacterial activity,"trypsin; 20 μg/mL trypsin, agar diffusion, n = 3",significantly reduce
same,residual antibacterial activity after trypsin,"trypsin; 100 μg/mL trypsin, equal volumes, agar diffusion vs S. aureus ATCC 25923, n = 3",19.6%
same,"number of dead bacteria in the S. aureus biofilm (confocal, SYTO 9/PI)",[2],significantly increased
same,zone of inhibition (agar diffusion),S. aureus ATCC 25923 [3],produced a zone of inhibition
same,time to membrane depolarization (DiSC3-5),"S. aureus ATCC 25923 [4]; 4×MIC, DiSC3-5 1 μM, ex 622 nm / em 670 nm",≤ 10 s
same,DiSC3-5 fluorescence intensity compared with antibiotic AMP,S. aureus ATCC 25923 [4]; comparator AMP 50 μg/mL,higher than that produced by the antibiotic AMP
same,effect of proteinase K on antibacterial activity,"proteinase K; 40 μg/mL proteinase K, agar diffusion, n = 3",significantly reduced
same,residual antibacterial activity after proteinase K,"proteinase K; 100 μg/mL proteinase K, equal volumes, agar diffusion vs S. aureus ATCC 25923, n = 3",66.3%
same,effect of temperature on antibacterial activity of MPX (thermal stability),"S. aureus [5]; 0, 25, 50, 75 and 100°C for 30 min",basically no effect
same,effect of repeated freezing and thawing on antimicrobial activity of MPX,S. aureus [5]; 1 mg/mL MPX frozen and thawed 0–12 times,did not change significantly
same,effect of CaCl2 on antibacterial activity of MPX,"S. aureus [5]; CaCl2 50, 100, 150, 200 and 250 mmol/mL, incubated 30 min",no significant effect
same,effect of KCl on antibacterial activity of MPX,"S. aureus [5]; KCl 50, 100, 150, 200 and 250 mmol/mL, incubated 30 min",little effect
same,effect of MgCl2 on antibacterial activity of MPX,"S. aureus [5]; MgCl2 50, 100, 150, 200 and 250 mmol/mL, incubated 30 min",no significant effect
same,effect of NaCl on antibacterial activity of MPX,"S. aureus [5]; NaCl 50, 100, 150, 200 and 250 mmol/mL, incubated 30 min",little effect
same,effect of pH on MPX activity,"S. aureus [5]; pH 4–10 (HCl/NaOH), incubated 30 min",basically no effect
same,"S. aureus biofilm formation (crystal violet, OD570)",[6],significantly reduced
same,inhibition in killing curve,"S. aureus ATCC 25923 [7]; MPX 1×MIC, within 5 h",relatively stable inhibition
same,bacteria killed (killing curve),"S. aureus ATCC 25923 [7]; MPX 4×MIC, within 1 h, start OD600 approx. 1.0, plate counting, n = 3",99.9%
same,number of PI-stained bacteria,S. aureus [8],significantly increased
same,total protein content of bacterial culture supernatant,S. aureus ATCC 25923 [9],significantly higher than that of the control group
same,NPN fluorescence intensity (membrane integrity),S. aureus ATCC 25923 [10],significantly higher than that of the control group and the antibiotic AMP treatment group
